Columns and labels:
HDAC6 [1] = biological target: T1, HDAC6 (Homo sapiens, UniProt Q9UBN7); test: HDAC6 enzyme inhibition assay (fluorimetric); type: biochemical; conditions: 1 μM compound; 3 h pre-incubation; recombinant full length HDAC6; read-out: HDAC6 % inh @ 1 μM
T1 sequence (Q9UBN7 1-1215): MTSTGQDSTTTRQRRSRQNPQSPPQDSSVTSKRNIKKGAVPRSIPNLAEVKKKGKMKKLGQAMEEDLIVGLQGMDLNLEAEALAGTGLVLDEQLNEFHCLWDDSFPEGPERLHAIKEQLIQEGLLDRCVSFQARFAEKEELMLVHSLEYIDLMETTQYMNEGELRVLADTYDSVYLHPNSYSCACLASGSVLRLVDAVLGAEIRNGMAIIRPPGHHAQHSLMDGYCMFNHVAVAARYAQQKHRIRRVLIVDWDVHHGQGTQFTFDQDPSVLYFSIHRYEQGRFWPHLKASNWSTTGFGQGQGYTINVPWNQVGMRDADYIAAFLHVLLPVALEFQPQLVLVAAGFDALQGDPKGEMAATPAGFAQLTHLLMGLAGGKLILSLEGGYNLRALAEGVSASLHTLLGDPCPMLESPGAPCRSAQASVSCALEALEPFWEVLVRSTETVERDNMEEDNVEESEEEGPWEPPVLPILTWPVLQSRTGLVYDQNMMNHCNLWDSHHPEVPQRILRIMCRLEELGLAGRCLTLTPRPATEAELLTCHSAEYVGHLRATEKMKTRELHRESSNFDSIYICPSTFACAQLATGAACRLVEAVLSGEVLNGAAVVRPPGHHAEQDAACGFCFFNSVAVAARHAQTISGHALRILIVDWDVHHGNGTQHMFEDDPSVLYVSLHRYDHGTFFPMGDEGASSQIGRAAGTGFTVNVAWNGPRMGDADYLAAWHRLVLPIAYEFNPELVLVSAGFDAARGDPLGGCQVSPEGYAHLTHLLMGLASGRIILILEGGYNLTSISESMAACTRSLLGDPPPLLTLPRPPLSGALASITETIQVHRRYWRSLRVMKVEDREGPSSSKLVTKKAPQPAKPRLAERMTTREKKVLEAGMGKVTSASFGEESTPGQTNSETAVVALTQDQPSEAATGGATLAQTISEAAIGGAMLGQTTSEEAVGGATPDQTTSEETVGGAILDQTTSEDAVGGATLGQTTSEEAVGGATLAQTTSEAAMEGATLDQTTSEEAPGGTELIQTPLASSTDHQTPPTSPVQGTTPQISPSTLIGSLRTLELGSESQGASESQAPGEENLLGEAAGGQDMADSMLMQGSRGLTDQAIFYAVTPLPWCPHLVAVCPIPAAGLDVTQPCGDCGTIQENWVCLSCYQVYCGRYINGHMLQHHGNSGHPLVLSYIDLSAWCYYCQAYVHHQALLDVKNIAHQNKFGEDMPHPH
Method: (§1) HDAC6 and HDAC2 Enzyme Inhibition Assay
(§2) A fluorimetric assay was used for testing the activity of compounds of the invention against HDAC6 and HDAC2.
(§3) The compounds were dissolved in DMSO. Serial dilutions were prepared in DMSO and then diluted 1:10 in HDAC assay buffer (Tris-buffered solution, BPS Bioscience Inc. #50031). 5 μl of the compound dilution was added to a 50 μl reaction so that the final concentration of DMSO was 1%.
(§4) The compounds were pre-incubated in duplicate at RT for 3 hours in a mixture containing HDAC assay buffer, 5 μg BSA and recombinant HDAC enzyme (see table above). The enzymatic reactions were initiated by the addition of a fluorogenic, acetylated peptide substrate based on a histone protein (BPS Bioscience Inc. #50037) to a final concentration of 10 μM. The enzymatic reaction proceeded for 30 minutes at 37° C. Then, 50 μl of 2× HDAC Developer, which contains peptidase activity and Trichostatin A (BPS Bioscience Inc. #50030) was added and the plate was incubated at RT for an additional 15 minutes. Fluorescence intensity was measured at an excitation of 360 nm and an emission of 460 nm using a Tecan Infinite M1000 microplate reader.
(§5) Trichostatin A (TSA, Selleckchem #S1045) was used as reference inhibitor.
(§6) The fluorescent intensity data were analyzed using the computer software Graphpad Prism (GraphPad Software, San Diego, CA). 100% activity was defined as the fluorescent intensity (Ft) in the absence of the compound. 0% activity was defined as the fluorescent intensity (Fb) in the absence of the enzyme. The percent activity in the presence of each compound was calculated according to the following equation: % activity=(F−Fb)/(Ft−Fb), where F=the fluorescent intensity in the presence of the compound.

HDAC6 [2] = biological target: T1, HDAC6; test: In vitro cell-based assay: acetylation levels of Alpha-Tubulin by Western Blot in MOLP8 cells; parameters: endogenous in cells; host or cells: MOLP8; conditions: 18 h, acetyl-alpha-tubulin relative band intensity, ACY-1215 1 μM = 100%
Method: In Vitro Cell-Based Assay
In order to determine the cellular activity of HDAC6 upon treatment with HDAC6 inhibitors, acetylation levels of Alpha-Tubulin (a HDAC6-specific substrate) were measured by Western Blot. For this, MOLP8 cells were seeded in 6-well plates at a cell density of 500.000 cells/well and treated with the selected compounds at 5 and 1 μM for 18 h at 37° C. and 5% CO2 in a humidified tissue culture incubator. Consecutively, cell pellets were collected and whole protein extracts prepared using RIPA buffer (SIGMA) supplemented with 1× protease inhibitors (cOmplete mini, Roche). Protein concentration was determined with Bradford's reagent (Bio-Rad) as per manufacturer's instructions, and 7 μg of total protein were loaded into pre-cast 10% NuPAGE Novex gels (Life Technologies). Gels were run in […] (Life Technologies) and proteins were transferred using the iBlot 2 Dry Blotting System (Life Technologies). Blots were subsequently rinsed in distilled water and stained with Ponceau S solution (SIGMA). Blots were then washed in distilled water to remove Ponceau excess and scanned with the Epson Perfection V600 Photo professional Scanner. After this, blots were de-stained and blocked in 5% milk/PBS-Tween 0.1% for 1 h at room temperature followed by incubation with anti-Acetyl-alpha Tubulin (SIGMA cat. #T7451, 1:10.000 dilution) and anti-Beta-actin (SIGMA, cat. #A5316, 1:2.000 dilution) primary antibodies in 5% milk/PBS-T 0.1%, overnight at 4° C. on a shaking platform. After incubation, blots were washed 3 times for 5 minutes each in PBS-Tween 0.5% and incubated with anti-mouse HRP-conjugated secondary antibody (Jackson Immuno Research, cat. #115-035-068) at 1:8.000 in 5% milk/PBS-Tween 0.1%, 1 h at room temperature on a shaking platform. After 3 washes of 5 minutes each with PBS-Tween 0.5% and 1 wash in PBS 1×, blots were developed with ECL Plus (GE Healthcare) and the chemiluminescent reaction imaged with the G:Box Chemi XRQ (Syngene) imaging system. WB and Ponceau images were analysed with ImageJ software, WB band intensities normalized by either total protein or Beta-actin content and made relative to ACY-1215 1 μM (equivalent to 100%). ACY-1215 is a HDAC6 inhibitor, and is also known as ricolinostat, with chemical name 2-(diphenylamino)-N-[7-(hydroxyamino)-7-oxoheptyl]-5-pyrimidinecarboxamide. Percentage of band intensities was classified as follows: […]

HDAC2 = biological target: T2, HDAC2 (Homo sapiens, UniProt Q92769); test: HDAC2 enzyme inhibition assay (fluorimetric); type: biochemical; conditions: 1 μM compound; 3 h pre-incubation; recombinant full length HDAC2; read-out: HDAC2 % inh @ 1 μM
T2 construct: (full length with C-terminal His-tag); His (C); purchased BPS Bioscience Inc. 50002
Method: as §1, §2, §3, §4, §5, §6

T2 sequence (Q92769 whole entry): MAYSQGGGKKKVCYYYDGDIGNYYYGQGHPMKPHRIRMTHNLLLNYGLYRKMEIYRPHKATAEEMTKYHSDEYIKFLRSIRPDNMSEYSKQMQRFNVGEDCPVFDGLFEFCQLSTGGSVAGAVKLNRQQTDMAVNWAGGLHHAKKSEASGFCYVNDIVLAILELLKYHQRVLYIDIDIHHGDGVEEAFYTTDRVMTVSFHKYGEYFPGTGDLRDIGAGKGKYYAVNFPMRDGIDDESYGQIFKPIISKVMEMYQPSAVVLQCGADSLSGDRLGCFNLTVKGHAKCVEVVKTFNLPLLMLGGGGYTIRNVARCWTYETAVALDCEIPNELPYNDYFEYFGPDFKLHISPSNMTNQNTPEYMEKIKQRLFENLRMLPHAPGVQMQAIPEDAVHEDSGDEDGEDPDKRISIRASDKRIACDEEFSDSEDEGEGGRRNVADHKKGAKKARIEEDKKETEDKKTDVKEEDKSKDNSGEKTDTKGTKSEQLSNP

| inhibition at 1 µM (HDAC6 [1]) | Cellular activity @1 uM (HDAC6 [2]) | Cellular activity @5 uM (HDAC6 [2]) | inhibition at 1 µM (HDAC2) | SMILES |
| --- | --- | --- | --- | --- |
| 79% | − (<50) | + (50-150) |  | CCCCn1ccc2cc(-c3cc(-c4noc(C(F)(F)F)n4)ccn3)ncc21 [Example 1, 3-(2-(1-Butyl-1H-pyrrolo[2,3-c]pyridin-5-yl)pyridin-4-yl)-5-(trifluoromethyl)-1,2,4-oxadiazole] |
| 92% | + (50-150) | + (50-150) |  | FC(F)(F)c1nc(-c2ccnc(-c3cc4c(CN5CCCCC5)n[nH]c4cn3)c2)no1 [Example 1aa, 3-(2-(3-(Piperidin-1-ylmethyl)-1H-pyrazolo[3,4-c]pyridin-5-yl)pyridin-4-yl)-5-(trifluoromethyl)-1,2,4-oxadiazole] |
| 93% | ++ (150-300) | ++ (150-300) | 38% | FC1(F)CCN(CCn2ccc3cnc(-c4cc(-c5noc(C(F)(F)F)n5)ccn4)cc32)CC1 [Example 1ab, 3-(2-(1-(2-(4,4-Difluoropiperidin-1-yl)ethyl)-1H-pyrrolo[3,2-c]pyridin-6-yl)pyridin-4-yl)-5-(trifluoromethyl)-1,2,4-oxadiazole] |
| 78% | + (50-150) | ++ (150-300) | 18% | CN1CCC(C(=O)Nc2ccc(-c3cc(-c4noc(C(F)(F)F)n4)ccn3)nc2)CC1 [Example 1ac, 1-Methyl-N-(4′-(5-(trifluoromethyl)-1,2,4-oxadiazol-3-yl)-[2,2′-bipyridin]-5-yl)piperidine-4-carboxamide] |
| 85% | + (50-150) | + (50-150) | 5% | O=C(CC1CCC1)Nc1ccnc(-c2cc(-c3noc(C(F)(F)F)n3)ccn2)c1 [Example 1ae, 2-Cyclobutyl-N-(4′-(5-(trifluoromethyl)-1,2,4-oxadiazol-3-yl)-[2,2′-bipyridin]-4-yl)acetamide] |
| 96% | + (50-150) | ++ (150-300) | 35% | CCCn1cc(CO)c2cc(-c3cc(-c4noc(C(F)(F)F)n4)ccn3)ncc21 [Example 1ah, (1-Propyl-5-(4-(5-(trifluoromethyl)-1,2,4-oxadiazol-3-yl)pyridin-2-yl)-1H-pyrrolo[2,3-c]pyridin-3-yl)methanol] |
| 90% | + (50-150) | ++ (150-300) | 14% | FC(F)(F)c1nc(-c2ccnc(-c3cc4[nH]ccc4cn3)c2)no1 [Example 1ak, 3-(2-(1H-Pyrrolo[3,2-c]pyridin-6-yl)pyridin-4-yl)-5-(trifluoromethyl)-1,2,4-oxadiazole] |
| 84% | + (50-150) | ++ (150-300) |  | CCCCn1c(C(=O)N(C)C)cc2cc(-c3cc(-c4noc(C(F)(F)F)n4)ccn3)ncc21 [Example 1b, 1-Butyl-N,N-dimethyl-5-(4-(5-(trifluoromethyl)-1,2,4-oxadiazol-3-yl)pyridin-2-yl)-1H-pyrrolo[2,3-c]pyridine-2-carboxamide] |
| 78% | + (50-150) | ++ (150-300) |  | CCCCn1c(C(=O)NCC)cc2cc(-c3cc(-c4noc(C(F)(F)F)n4)ccn3)ncc21 [Example 1d, 1-Butyl-N-ethyl-5-(4-(5-(trifluoromethyl)-1,2,4-oxadiazol-3-yl)pyridin-2-yl)-1H-pyrrolo[2,3-c]pyridine-2-carboxamide] |
| 96% | + (50-150) | ++ (150-300) |  | CCCn1cc(CN2CCOCC2)c2cc(-c3cc(-c4noc(C(F)(F)F)n4)ccn3)ncc21 [Example 1h, 4-((1-Propyl-5-(4-(5-(trifluoromethyl)-1,2,4-oxadiazol-3-yl)pyridin-2-yl)-1H-pyrrolo[2,3-c]pyridin-3-yl)methyl)morpholine] |
| 81% | − (<50) | + (50-150) |  | CCN(CC)CCCOc1cnc(-c2cc(-c3noc(C(F)(F)F)n3)ccn2)nc1 [Example 1m, N,N-Diethyl-3-(2-(4-(5-(trifluoromethyl)-1,2,4-oxadiazol-3-yl)pyridin-2-yl)pyrimidin-5-yloxy)propan-1-amine] |
| 92% | ++ (150-300) | ++ (150-300) |  | FC(F)(F)c1nc(-c2ccnc(-c3cc4c(ccn4CC4CCOCC4)cn3)c2)no1 [Example 1r, 3-(2-(1-((Tetrahydro-2H-pyran-4-yl)methyl)-1H-pyrrolo[3,2-c]pyridin-6-yl)pyridin-4-yl)-5-(trifluoromethyl)-1,2,4-oxadiazole] |
| 88% | − (<50) | + (50-150) |  | FC(F)(F)c1nc(-c2ccnc(-c3cc(OCCN4CCOCC4)ccn3)c2)no1 [Example 1t, 4-(2-((4′-(5-(Trifluoromethyl)-1,2,4-oxadiazol-3-yl)-[2,2′-bipyridin]-4-yl)oxy)ethyl)morpholine] |
